{"source": "ChEMBL document CHEMBL5154644", "about": "“Design, Synthesis, and Structure-Activity Relationship Optimization of Pyrazolopyrimidine Amide Inhibitors of Phosphoinositide 3-Kinase γ (PI3Kγ)” (J Med Chem, 2022)", "target": "T1, Cytochrome P450 1A2 (Homo sapiens, UniProt P05177)", "T1 sequence (P05177 whole entry)": "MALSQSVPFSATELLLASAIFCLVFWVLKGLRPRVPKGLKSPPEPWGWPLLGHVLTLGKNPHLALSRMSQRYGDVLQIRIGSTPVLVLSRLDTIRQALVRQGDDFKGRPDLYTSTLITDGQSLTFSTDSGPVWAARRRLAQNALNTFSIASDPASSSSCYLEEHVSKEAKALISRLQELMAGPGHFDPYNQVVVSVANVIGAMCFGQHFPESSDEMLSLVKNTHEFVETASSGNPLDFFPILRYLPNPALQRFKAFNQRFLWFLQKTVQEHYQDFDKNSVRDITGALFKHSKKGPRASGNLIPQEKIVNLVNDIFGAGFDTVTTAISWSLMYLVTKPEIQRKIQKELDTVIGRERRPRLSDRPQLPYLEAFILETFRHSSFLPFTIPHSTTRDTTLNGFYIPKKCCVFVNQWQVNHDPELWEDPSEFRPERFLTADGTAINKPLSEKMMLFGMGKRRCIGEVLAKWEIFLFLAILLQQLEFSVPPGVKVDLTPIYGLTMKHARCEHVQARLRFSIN", "assay": "Time dependent inhibition of CYP1A2 in human liver microsomes at 40 uM using phenacetin as substrate measured after 5 to 20 mins in presence of NADPH by LC/MS/MS analysis", "format": "ADME, Microsome"}
{"smiles": "C[C@@H](C1CC1)N1Cc2cc(-c3ccn4nc(N)c(C(=O)N[C@H]5CC[C@@](C)(O)CC5)c4n3)cc(OC(F)F)c2C1=O", "values": [{"measurement": "IC50", "value": "> 20", "unit": "µM"}]}
